Experimental data from ChEMBL document CHEMBL1201862, “PubChem BioAssay data set” (2004).
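Following 48 hours of exposure in 96-well plates, responses at five concentrations were used to interpolate endpoints linearly. Here, GI50 denotes the concentration required for 50% inhibition of growth.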 Activity calls are given as the source filed them. No stated cut-off is given here; in the data, active = GI50 up to about 1.1 µM and inactive = higher. Where a SMILES comes first, the peptide text is derived from it. [ ]: non-standard residue; d: D form. The star is where a group is joined. Phe(4-NO2) = N[CH](Cc1ccc([N+](=O)[O-])cc1)C(=O)O; Boc = CC(C)(C)OC(=O)*

Assays:
Test in all cases: NCI tumour cell line growth inhibition, 48 h
NCI-H23 = tested on: NCI-H23
A498 = tested on: A498
OVCAR-8 = tested on: OVCAR-8
SK-MEL-28 = tested on: SK-MEL-28
UACC-257 = tested on: UACC-257
HCT-116 = tested on: HCT-116
HL-60 = tested on: HL-60
TK-10 = tested on: TK-10
HCC 2998 = tested on: HCC 2998
A549 = tested on: A549
Malme-3M = tested on: Malme-3M
MCF7 = tested on: MCF7
HT-29 = tested on: HT-29
SW-620 = tested on: SW-620
SK-MEL-5 = tested on: SK-MEL-5
RXF 393 = tested on: RXF 393
SN12C = tested on: SN12C
OVCAR-5 = tested on: OVCAR-5
ACHN = tested on: ACHN
M14 = tested on: M14
MOLT-4 = tested on: MOLT-4
HOP-92 = tested on: HOP-92
Hs-578T = tested on: Hs-578T
SNB-75 = tested on: SNB-75
COLO 205 = tested on: COLO 205
KM12 = tested on: KM12
NCI-H226 = tested on: NCI-H226
HOP-62 = tested on: HOP-62
SK-MEL-2 = tested on: SK-MEL-2
K562 = tested on: K562
UACC-62 = tested on: UACC-62
SR = tested on: SR
NCI-H460 = tested on: NCI-H460
IGROV-1 = tested on: IGROV-1
HCT-15 = tested on: HCT-15
BT-549 = tested on: BT-549
PC-3 = tested on: PC-3
SNB-19 = tested on: SNB-19
MDA-N = tested on: MDA-N
786-0 = tested on: 786-0
MDA-MB-231 = tested on: MDA-MB-231
EKVX = tested on: EKVX
UO-31 = tested on: UO-31
RPMI-8226 = tested on: RPMI-8226
U-251 = tested on: U-251

Q: Which GI50 (NCI-H23) does the source give for `CCOC(=O)CCC(NC(=O)C(Cc1ccc([N+](=O)[O-])cc1)NC(=O)OC(C)(C)C)C(=O)NC(CCC(=O)OCC)C(=O)OCC` (stereo not given) (Boc-[Phe(4-NO2)]-Glu(OEt)-Glu(OEt)-OEt; configuration not given here) here?
A: The GI50 was 17.9 µM (inactive).

Q: What about the GI50 (A498) of the same compound?
A: The GI50 was 19.5 µM (inactive).

Q: And the GI50 (OVCAR-8)?
A: Its GI50 is 18.5 µM (inactive).

Q: What about the GI50 (SK-MEL-28) of the same compound?
A: The GI50 was 15.6 µM (inactive).

Q: What about the GI50 (UACC-257) of the same compound?
A: Its GI50 is > 10 µM (inactive).

Q: What about the GI50 (HCT-116) of the same compound?
A: The GI50 was 18.3 µM (inactive).

Q: And the GI50 (HL-60)?
A: Its GI50 is 14.9 µM (inactive).

Q: What about the GI50 (TK-10) of the same compound?
A: The GI50 was 15.5 µM (inactive).

Q: What about the GI50 (HCC 2998) of the same compound?
A: The GI50 was 15.8 µM (inactive).

Q: What about the GI50 (A549) of the same compound?
A: Its GI50 is 38.5 µM (inactive).

Q: What about the GI50 (Malme-3M) of the same compound?
A: Its GI50 is 18.2 µM (inactive).

Q: And the GI50 (MCF7)?
A: The GI50 was 28 µM (inactive).

Q: What about the GI50 (HT-29) of the same compound?
A: Its GI50 is 16.3 µM (inactive).

Q: And the GI50 (SW-620)?
A: The GI50 was 17.9 µM (inactive).

Q: What about the GI50 (SK-MEL-5) of the same compound?
A: The GI50 was 17.4 µM (inactive).

Q: And the GI50 (RXF 393)?
A: Its GI50 is 16.6 µM (inactive).

Q: And the GI50 (SN12C)?
A: Its GI50 is 22.3 µM (inactive).

Q: And the GI50 (OVCAR-5)?
A: Its GI50 is 20.7 µM (inactive).

Q: What about the GI50 (ACHN) of the same compound?
A: The GI50 was 17.4 µM (inactive).

Q: What about the GI50 (M14) of the same compound?
A: Its GI50 is 16.8 µM (inactive).

Q: And the GI50 (MOLT-4)?
A: Its GI50 is 2.73 µM (inactive).

Q: And the GI50 (HOP-92)?
A: Its GI50 is 15.8 µM (inactive).

Q: What about the GI50 (Hs-578T) of the same compound?
A: The GI50 was 18.7 µM (inactive).

Q: And the GI50 (SNB-75)?
A: Its GI50 is 15.6 µM (inactive).

Q: And the GI50 (COLO 205)?
A: The GI50 was 21.2 µM (inactive).

Q: And the GI50 (KM12)?
A: Its GI50 is 11.7 µM (inactive).

Q: And the GI50 (NCI-H226)?
A: The GI50 was 16.8 µM (inactive).

Q: What about the GI50 (HOP-62) of the same compound?
A: Its GI50 is 24.2 µM (inactive).

Q: What about the GI50 (SK-MEL-2) of the same compound?
A: Its GI50 is 13.2 µM (inactive).

Q: And the GI50 (K562)?
A: The GI50 was > 10 µM (inactive).

Q: And the GI50 (UACC-62)?
A: Its GI50 is 16.8 µM (inactive).

Q: What about the GI50 (SR) of the same compound?
A: The GI50 was 2.87 µM (inactive).

Q: And the GI50 (NCI-H460)?
A: The GI50 was 23.4 µM (inactive).

Q: And the GI50 (IGROV-1)?
A: The GI50 was 20.3 µM (inactive).

Q: And the GI50 (HCT-15)?
A: Its GI50 is 36 µM.

Q: And the GI50 (BT-549)?
A: Its GI50 is 22.2 µM (inactive).

Q: What about the GI50 (PC-3) of the same compound?
A: Its GI50 is 19.7 µM (inactive).

Q: What about the GI50 (SNB-19) of the same compound?
A: Its GI50 is 95.9 µM (inactive).

Q: What about the GI50 (MDA-N) of the same compound?
A: The GI50 was 21.1 µM (inactive).

Q: And the GI50 (786-0)?
A: The GI50 was 16.8 µM (inactive).

Q: And the GI50 (MDA-MB-231)?
A: Its GI50 is 27 µM (inactive).

Q: And the GI50 (EKVX)?
A: The GI50 was > 10 µM (inactive).

Q: What about the GI50 (UO-31) of the same compound?
A: The GI50 was > 100 µM (inactive).

Q: What about the GI50 (RPMI-8226) of the same compound?
A: Its GI50 is 18.1 µM (inactive).

Q: What about the GI50 (U-251) of the same compound?
A: The GI50 was 19.8 µM (inactive).
